According to ChEMBL document CHEMBL1201862, “PubChem BioAssay data set” (2004):
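Dose response: 5 concentrations. Exposure: 48 h. Format: 96-well plates. Endpoint: linear interpolation; highest concentration if not reached. Here, GI50 denotes the concentration required for 50% inhibition of growth.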 Activity calls are given as the source filed them. No stated cut-off is given here; in the data, active = GI50 up to about 1.1 µM and inactive = higher.

Tests used:
Assay in all cases: DTP human tumour cell line panel, 48 h
XF498 = system: XF498
SNB-78 = system: SNB-78
LXFL 529 = system: LXFL 529
DMS-273 = system: DMS-273
KM-20L2 = system: KM-20L2
MDA-MB-231 = system: MDA-MB-231
MDA-N = system: MDA-N
RXF 631 = system: RXF 631
786-0 = system: 786-0

Compound	GI50 (XF498)	GI50 (SNB-78)	GI50 (LXFL 529)	GI50 (DMS-273)	GI50 (KM-20L2)	GI50 (MDA-MB-231)	GI50 (MDA-N)	further results
CCOC(=O)NC(=O)c1cn(CCNCCO)c(=O)[nH]c1=O	> 100 µM (inactive)	> 100 µM (inactive)	> 100 µM (inactive)					
Cc1ccc(N(O)C(C)(C)C)cc1	> 100 µM (inactive)			> 100 µM (inactive)	> 100 µM (inactive)			
Cc1ccc(C(=O)C2CC3(CCC2(O)c2ccc(C)cc2)CC(=O)Nc2ccccc2C3=O)cc1 (configuration not stated)						> 100 µM (inactive)	> 100 µM (inactive)	
COc1nc(-c2cn(S(=O)(=O)c3ccc(C)cc3)c3ccc(Br)cc23)cc(C(F)(F)F)c1C#N							> 100 µM (inactive)	
CC(=O)Nc1ccc(C(=O)NN2C(=O)C(Cl)C2/C=C/c2ccccc2)cc1 (configuration not stated)			> 100 µM (inactive)					
O=[N+]([O-])c1cc2ncc(-c3ccccc3)c(O)c2cc1/C(Cl)=C/c1ccccc1	8.24 µM (inactive)	8.73 µM (inactive)		5.61 µM (inactive)	17.7 µM (inactive)			
Nc1nc(=O)n(CC(O)CO)s1 (configuration not stated)			> 100 µM (inactive)	> 100 µM (inactive)	> 100 µM (inactive)			GI50 (RXF 631): > 100 µM (inactive)
CC(C)(C)[Si](C)(C)OCCOCn1cc(F)c(=O)[nH]c1=O							> 100 µM (inactive)	GI50 (786-0): > 100 µM (inactive)
CC(C)(C)[Si](OC1CC(n2cnc3c(N)ncnc32)OC1CO)(c1ccccc1)c1ccccc1 (configuration not stated)	10.4 µM (inactive)	> 100 µM (inactive)	34.6 µM (inactive)	18.7 µM (inactive)	15.4 µM (inactive)			
COc1ccc(-c2cc(-c3ccccc3)c(C#N)c(=O)n2C2OC(CO)C(O)C(O)C2O)cc1 (configuration not stated)		> 100 µM (inactive)	> 100 µM (inactive)	> 100 µM (inactive)	> 100 µM (inactive)			GI50 (RXF 631): > 100 µM (inactive); GI50 (786-0): > 100 µM (inactive)
COc1ccc(N2C(=O)CSC2c2c[nH]c3ccccc23)cc1 (configuration not stated)						72.9 µM (inactive)	35.2 µM (inactive)	
O=C(NCCCCCCNC(=O)n1cc(F)c(=O)[nH]c1=O)NCCCOCCOCCCNC(=O)C(O)C(O)C(O)C(O)CO (configuration not stated)	> 2.5 µM (inactive)	> 2.5 µM (inactive)		> 2.5 µM (inactive)	> 2.5 µM (inactive)			
S=C(N/N=C(/c1ccccc1)c1ccccn1)Nc1cccc(Cl)c1						< 0.0202 µM (active)	0.557 µM (active)	
Nc1ncnc2c1sc1nc3ccccc3n12						44.8 µM (inactive)		
Cc1[nH]c(=O)nc(S)c1C(=O)NC1C2CCCCC2NC2CCCCC21 (configuration not stated)						14.9 µM (inactive)	11.5 µM (inactive)	
O=C1CC(=O)N(c2ccccc2)N1/C(=C/c1ccccc1)c1ccccc1						10.6 µM (inactive)	13.6 µM (inactive)	
CCOC(=O)[C@H]1Nc2c(cccc2[N+](=O)[O-])[C@H]2OCC[C@@H]12	> 100 µM (inactive)	> 100 µM (inactive)	> 100 µM (inactive)	> 100 µM (inactive)	> 100 µM (inactive)			GI50 (RXF 631): > 100 µM (inactive)
CN1C(=O)[C@@H]2[C@@H]3c4ccccc4N[C@@H]3c3[nH]c4ccccc4c3[C@@H]2C1=O						21 µM (inactive)	31.8 µM (inactive)	
Cn1c(=O)[nH]c2c(c1=O)C(=O)CN2	> 100 µM (inactive)	> 100 µM (inactive)	> 100 µM (inactive)	> 100 µM (inactive)	> 100 µM (inactive)			
Nc1c(Br)cc2c(c1Br)Cc1cc(Br)ccc1-2						> 100 µM (inactive)	> 100 µM (inactive)	
CCSc1nc(N)c2c(-c3ccccc3)c3c(nc2n1)CCC3						> 100 µM (inactive)	> 100 µM (inactive)	
CC(=O)NC(Cc1ccsc1)C(=O)O (configuration not stated)	> 35.4 µM (inactive)	> 100 µM (inactive)		> 100 µM (inactive)	> 100 µM (inactive)			
COc1ccc(-c2c(C#N)c(N)nc3c2CCS(=O)(=O)c2ccccc2-3)cc1						> 100 µM (inactive)		GI50 (786-0): 68.2 µM (inactive)
Cc1cnc(SCCN2CCN(C)CC2)nc1-c1cc2ccccc2s1		16.7 µM (inactive)	13.8 µM (inactive)	4.93 µM (inactive)				GI50 (786-0): 12 µM (inactive)
COc1ccccc1NC(=O)/C(Cc1nc2ccc([N+](=O)[O-])cc2nc1O)=N\NC(=O)C[N+](C)(C)C						> 100 µM (inactive)	14.9 µM (inactive)	GI50 (786-0): 68.7 µM (inactive)
CCN(CC)c1ccc2cc(C(=O)Nc3ccc4[nH]c(C(=O)N5C[C@@H](CCl)c6c5cc(OC(=O)Nc5ccccc5)c5[nH]cc(C)c65)cc4c3)oc2c1 [CARZELESIN]		0.000995 µM (active)		9.33e-05 µM (active)	944 µM (inactive)			
